Measurements as given in ChEMBL document CHEMBL4706710, “Synthesis and evaluation of novel thiosemicarbazone and semicarbazone analogs with both anti-proliferative and anti-metastatic activities against triple negative breast cancer” (Bioorg Med Chem, 2021).
pIC50: −log10 of the molar value. Calls of active or inactive are those of the source. The calls are words filed in the database; no cut-off is given here.

Columns and labels:
MCF7 [1] = assay: Antiproliferative activity against human MCF7 cells assessed as reduction in cell viability after 48 hrs by MTT assay; assay type: functional, cell-based; details: MCF7, 48 h
MDA-MB-231 [2] = assay: Antiproliferative activity against human MDA-MB-231 cells assessed as reduction in cell viability after 48 hrs by MTT assay; assay type: functional, cell-based; details: MDA-MB-231, 48 h
A549 = assay: Antiproliferative activity against human A549 cells assessed as reduction in cell viability after 48 hrs by MTT assay; assay type: functional, cell-based; details: A549, 48 h
HT-29 = assay: Antiproliferative activity against human HT-29 cells assessed as reduction in cell viability after 48 hrs by MTT assay; assay type: functional, cell-based; details: HT-29, 48 h
MDA-MB-231 [3] = assay: Potency index, ratio of hecogenin IC50 to test compound IC50 for antiproliferative activity against human MDA-MB-231 cells; assay type: functional
MCF7 [4] = assay: Potency index, ratio of hecogenin IC50 to test compound IC50 for antiproliferative activity against human MCF7 cells; assay type: functional
HUVEC = assay: Cytotoxicity against human HUVEC cells assessed as reduction in cell viability after 48 hrs by MTT assay; assay type: cell-based
MDA-MB-231 [5] = assay: Induction of apoptosis in human MDA-MB-231 cells assessed as increase in early apoptotic cells at 10 uM by annexin V-FITC/propidium iodide staining based flow cytometric analysis; assay type: functional, cell-based; details: time 3-9 hrs, TDE = time-dependent effect
MDA-MB-231 [6] = assay: Induction of apoptosis in human MDA-MB-231 cells assessed as increase in late apoptotic cells at 10 uM by annexin V-FITC/propidium iodide staining based flow cytometric analysis; assay type: functional, cell-based; details: time 3-9 hrs, TDE = time-dependent effect
MDA-MB-231 [7] = assay: Induction of apoptosis in human MDA-MB-231 cells assessed as viable cells at 10 uM after 3 hrs by annexin V-FITC/propidium iodide staining based flow cytometric analysis (reference value: 91.2%); assay type: functional; details: read-out: Activity
MDA-MB-231 [8] = assay: Induction of apoptosis in human MDA-MB-231 cells assessed as viable cells at 10 uM after 6 hrs by annexin V-FITC/propidium iodide staining based flow cytometric analysis (reference value: 91.2%); assay type: functional; details: read-out: Activity
MDA-MB-231 [9] = assay: Induction of apoptosis in human MDA-MB-231 cells assessed as viable cells at 10 uM after 9 hrs by annexin V-FITC/propidium iodide staining based flow cytometric analysis (reference value: 91.2%); assay type: functional; details: read-out: Activity
MDA-MB-231 [10] = assay: Induction of apoptosis in human MDA-MB-231 cells assessed as early apoptotic cells at 10 uM after 3 hrs by annexin V-FITC/propidium iodide staining based flow cytometric analysis (reference value: 2.7%); assay type: functional
MDA-MB-231 [11] = assay: Induction of apoptosis in human MDA-MB-231 cells assessed as early apoptotic cells at 10 uM after 6 hrs by annexin V-FITC/propidium iodide staining based flow cytometric analysis (reference value: 2.7%); assay type: functional
MDA-MB-231 [12] = assay: Induction of apoptosis in human MDA-MB-231 cells assessed as early apoptotic cells at 10 uM after 9 hrs by annexin V-FITC/propidium iodide staining based flow cytometric analysis (reference value: 2.7%); assay type: functional
MDA-MB-231 [13] = assay: Induction of apoptosis in human MDA-MB-231 cells assessed as late apoptotic cells at 10 uM after 3 hrs by annexin V-FITC/propidium iodide staining based flow cytometric analysis (reference value: 3.1%); assay type: functional
MDA-MB-231 [14] = assay: Induction of apoptosis in human MDA-MB-231 cells assessed as late apoptotic cells at 10 uM after 6 hrs by annexin V-FITC/propidium iodide staining based flow cytometric analysis (reference value: 3.1%); assay type: functional
MDA-MB-231 [15] = assay: Induction of apoptosis in human MDA-MB-231 cells assessed as late apoptotic cells at 10 uM after 9 hrs by annexin V-FITC/propidium iodide staining based flow cytometric analysis (reference value: 3.1%); assay type: functional
MDA-MB-231 [16] = assay: Induction of apoptosis in human MDA-MB-231 cells assessed as necrotic cells at 10 uM after 3 hrs by annexin V-FITC/propidium iodide staining based flow cytometric analysis (reference value: 3%); assay type: functional
MDA-MB-231 [17] = assay: Induction of apoptosis in human MDA-MB-231 cells assessed as necrotic cells at 10 uM after 6 hrs by annexin V-FITC/propidium iodide staining based flow cytometric analysis (reference value: 3%); assay type: functional
MDA-MB-231 [18] = assay: Induction of apoptosis in human MDA-MB-231 cells assessed as necrotic cells at 10 uM after 9 hrs by annexin V-FITC/propidium iodide staining based flow cytometric analysis (reference value: 3%); assay type: functional
MDA-MB-231 [19] = assay: Induction of cell cycle arrest in human MDA-MB-231 cells assessed as accumulation at sub-G1 phase at 10 uM after 48 hrs by propidium iodide staining based flow cytometric analysis (reference value: 3.25%); assay type: functional
MDA-MB-231 [20] = assay: Induction of cell cycle arrest in human MDA-MB-231 cells assessed as accumulation at sub-G1 phase at 20 uM after 48 hrs by propidium iodide staining based flow cytometric analysis (reference value: 3.25%); assay type: functional
MDA-MB-231 [21] = assay: Induction of cell cycle arrest in human MDA-MB-231 cells assessed as accumulation at sub-G1 phase at 40 uM after 48 hrs by propidium iodide staining based flow cytometric analysis (reference value: 3.25%); assay type: functional
MCF7 [22] = assay: Induction of cell cycle arrest in human MCF7 cells assessed as accumulation at sub-G1 phase at 10 uM after 48 hrs by propidium iodide staining based flow cytometric analysis (reference value: 3.04%); assay type: functional
MCF7 [23] = assay: Induction of cell cycle arrest in human MCF7 cells assessed as accumulation at sub-G1 phase at 20 uM after 48 hrs by propidium iodide staining based flow cytometric analysis (reference value: 3.04%); assay type: functional
MCF7 [24] = assay: Induction of cell cycle arrest in human MCF7 cells assessed as accumulation at sub-G1 phase at 40 uM after 48 hrs by propidium iodide staining based flow cytometric analysis (reference value: 3.04%); assay type: functional
MCF7 [25] = assay: Induction of cell cycle arrest in human MCF7 cells assessed as accumulation at sub-G1 phase after 48 hrs by propidium iodide staining based flow cytometric analysis; assay type: functional; details: dose 10-40 µM
MDA-MB-231 [26] = assay: Induction of cell cycle arrest in human MDA-MB-231 cells assessed as accumulation at sub-G1 phase after 48 hrs by propidium iodide staining based flow cytometric analysis; assay type: functional; details: dose 10-40 µM
MDA-MB-231 [27] = assay: Inhibition of cell migration in human MDA-MB-231 cells at 20 uM after 20 hrs by inverted microscopic method; assay type: functional, cell-based
MDA-MB-231 [28] = assay: Antiinvasive activity against in human MDA-MB-231 cells at 20 uM after 24 hrs by matrigel coated transwell assay; assay type: functional, cell-based

SMILES: CC(=O)O[C@H]1CC[C@@]2(C)[C@@H](CC[C@@H]3[C@@H]2CC(=O)N[C@]2(C)C(/C(C)=N/NC(=S)Nc4ccccc4)=CC[C@@H]32)C1
- pIC50 (MCF7 [1]): 4.72
- pIC50 (MDA-MB-231 [2]): 4.59
- pIC50 (A549): 4.45
- pIC50 (HT-29): 4.47

SMILES: CC(=O)O[C@H]1CC[C@@]2(C)[C@@H](CC[C@H]3[C@@H]4CC=C(/C(C)=N/NC(=S)Nc5ccccc5)[C@@]4(C)C(=O)C[C@@H]32)C1
- pIC50 (MCF7 [1]): 5.67
- pIC50 (MDA-MB-231 [2]): 4.98
- pIC50 (A549): 5.11
- pIC50 (HT-29): 4.97
- Ratio IC50 (MDA-MB-231 [3]): >10
- Ratio IC50 (MCF7 [4]): >10

SMILES: CC(=O)O[C@H]1CC[C@@]2(C)[C@@H](CC[C@@H]3[C@@H]2CC(=O)N[C@]2(C)C(/C(C)=N/NC(=S)Nc4ccc(C(F)(F)F)cc4)=CC[C@@H]32)C1
- pIC50 (MCF7 [1]): 4.64
- pIC50 (MDA-MB-231 [2]): 4.60
- pIC50 (A549): 4.44
- pIC50 (HT-29): 4.47

SMILES: CC(=O)O[C@H]1CC[C@@]2(C)[C@@H](CC[C@H]3[C@@H]4CC=C(/C(C)=N/NC(=S)Nc5ccc(C(F)(F)F)cc5)[C@@]4(C)C(=O)C[C@@H]32)C1
- pIC50 (MCF7 [1]): 5.16
- pIC50 (MDA-MB-231 [2]): 4.93
- pIC50 (A549): 5.01
- pIC50 (HT-29): 4.95

SMILES: CC(=O)O[C@H]1CC[C@@]2(C)[C@@H](CC[C@H]3[C@@H]4CC=C(/C(C)=N/NC(N)=S)[C@@]4(C)C(=O)C[C@@H]32)C1
- pIC50 (MCF7 [1]): 5.80
- pIC50 (MDA-MB-231 [2]): 5.57
- pIC50 (A549): 5.26
- pIC50 (HT-29): 5.17
- pIC50 (HUVEC): < 4.00
- Activity (MDA-MB-231 [5]): Tde
- Activity (MDA-MB-231 [6]): Tde
- viability at 10 µM (MDA-MB-231 [7]): 77.4%
- viability at 10 µM (MDA-MB-231 [8]): 74.1%
- viability at 10 µM (MDA-MB-231 [9]): 68.8%
- Activity (MDA-MB-231 [10]): 5.9%
- Activity (MDA-MB-231 [11]): 6.3%
- Activity (MDA-MB-231 [12]): 7.8%
- Activity (MDA-MB-231 [13]): 9.5%
- Activity (MDA-MB-231 [14]): 12.1%
- Activity (MDA-MB-231 [15]): 15.2%
- Activity (MDA-MB-231 [16]): 7.2%
- Activity (MDA-MB-231 [17]): 7.5%
- Activity (MDA-MB-231 [18]): 8.2%
- Activity (MDA-MB-231 [19]): 14.82%
- Activity (MDA-MB-231 [20]): 39.79%
- Activity (MDA-MB-231 [21]): 54.95%
- Activity (MCF7 [22]): 25.52%
- Activity (MCF7 [23]): 44.95%
- Activity (MCF7 [24]): 67.72%
- Activity (MCF7 [25]): Dose-dependent effect
- Activity (MDA-MB-231 [26]): Dose-dependent effect
- inhibition (MDA-MB-231 [27]): Active
- Activity (MDA-MB-231 [28]): Active
- Ratio IC50 (MDA-MB-231 [3]): >10
- Ratio IC50 (MCF7 [4]): >10

SMILES: CC(=O)O[C@H]1CC[C@@]2(C)[C@@H](CC[C@H]3[C@@H]4CC=C(/C(C)=N/NC(N)=O)[C@@]4(C)C(=O)C[C@@H]32)C1
- pIC50 (MCF7 [1]): 5.76
- pIC50 (MDA-MB-231 [2]): 5.23
- pIC50 (A549): 5.16
- pIC50 (HT-29): 5.11
- pIC50 (HUVEC): < 4.00
- Ratio IC50 (MDA-MB-231 [3]): >10
- Ratio IC50 (MCF7 [4]): >10

SMILES: CC(=O)O[C@H]1CC[C@@]2(C)[C@@H](CC[C@H]3[C@@H]4CC=C(/C(C)=N/NC(=O)Nc5ccccc5)[C@@]4(C)C(=O)C[C@@H]32)C1
- pIC50 (MCF7 [1]): 4.94
- pIC50 (MDA-MB-231 [2]): 4.81
- pIC50 (A549): 4.64
- pIC50 (HT-29): 4.75

SMILES: CC(=O)O[C@H]1CC[C@@]2(C)[C@@H](CC[C@@H]3[C@@H]2CC(=O)N[C@]2(C)C(/C(C)=N/NC(=O)Nc4ccccc4)=CC[C@@H]32)C1
- pIC50 (MCF7 [1]): 4.45
- pIC50 (MDA-MB-231 [2]): < 4.40
- pIC50 (A549): < 4.40
- pIC50 (HT-29): < 4.40

SMILES: CC(=O)O[C@H]1CC[C@@]2(C)[C@@H](CC[C@@H]3[C@@H]2CC(=O)N[C@]2(C)C(/C(C)=N/NC(N)=S)=CC[C@@H]32)C1
- pIC50 (MCF7 [1]): 4.82
- pIC50 (MDA-MB-231 [2]): 4.78
- pIC50 (A549): 4.54
- pIC50 (HT-29): 4.57

SMILES: CC(=O)O[C@H]1CC[C@@]2(C)[C@@H](CC[C@@H]3[C@@H]2CC(=O)N[C@]2(C)C(/C(C)=N/NC(=S)Nc4ccccc4C)=CC[C@@H]32)C1
- pIC50 (MCF7 [1]): 4.53
- pIC50 (MDA-MB-231 [2]): < 4.40
- pIC50 (A549): < 4.40
- pIC50 (HT-29): 4.43

SMILES: CC(=O)O[C@H]1CC[C@@]2(C)[C@@H](CC[C@@H]3[C@@H]2CC(=O)N[C@]2(C)C(/C(C)=N/NC(N)=O)=CC[C@@H]32)C1
- pIC50 (MCF7 [1]): 4.76
- pIC50 (MDA-MB-231 [2]): 4.72
- pIC50 (A549): 4.54
- pIC50 (HT-29): 4.54

SMILES: CC(=O)O[C@H]1CC[C@@]2(C)[C@@H](CC[C@H]3[C@@H]4CC=C(/C(C)=N/NC(=S)Nc5ccccc5C)[C@@]4(C)C(=O)C[C@@H]32)C1
- pIC50 (MCF7 [1]): 5.15
- pIC50 (MDA-MB-231 [2]): 4.85
- pIC50 (A549): 4.77
- pIC50 (HT-29): 4.88

SMILES: C[C@@H]1CC[C@@]2(OC1)O[C@H]1C[C@H]3[C@@H]4CC[C@H]5C[C@@H](O)CC[C@]5(C)[C@H]4CC(=O)[C@]3(C)[C@H]1[C@@H]2C
- pIC50 (MCF7 [1]): 4.54
- pIC50 (MDA-MB-231 [2]): 4.51
- pIC50 (A549): < 4.40
- pIC50 (HT-29): < 4.40
- pIC50 (HUVEC): < 4.00
